Results as given in patent US20210355107A1, “MULTI-SUBSTITUTED PYRIDONE DERIVATIVES AND MEDICAL USE THEREOF” (Beijing Yuezhikangtai Biomedicines Co., Ltd., priority 2018, published 2021).

Biological target: T1, tyrosine kinase Tyro3 (Homo sapiens, UniProt Q06418)
T1 construct: purchased Carna 08-109
T1 sequence (Q06418 453-890 limits assumed): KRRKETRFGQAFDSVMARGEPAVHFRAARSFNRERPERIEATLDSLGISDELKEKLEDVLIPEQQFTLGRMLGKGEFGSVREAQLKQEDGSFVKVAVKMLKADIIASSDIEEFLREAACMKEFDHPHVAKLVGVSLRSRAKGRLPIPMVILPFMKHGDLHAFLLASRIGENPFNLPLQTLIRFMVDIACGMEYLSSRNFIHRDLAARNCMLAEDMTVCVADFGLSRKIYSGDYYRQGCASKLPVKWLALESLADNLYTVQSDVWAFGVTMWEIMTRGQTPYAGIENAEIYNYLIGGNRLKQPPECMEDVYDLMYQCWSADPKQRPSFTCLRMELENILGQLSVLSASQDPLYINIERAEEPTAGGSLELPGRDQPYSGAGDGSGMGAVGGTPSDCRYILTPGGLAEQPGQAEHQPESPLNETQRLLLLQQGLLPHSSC
Test: HTRF assay, inhibitory activity against tyrosine kinase Tyro3
Assay type: biochemical
Conditions: ATP at Km (50 μM), two duplicate wells
Protocol: Test Example 2: Evaluation of Inhibitory Activity (IC50) of Compounds disclosed herein against Tyrosine Kinases Mer and Tyro3
In this test, HTRF method was used to test the inhibitory activity of compounds when ATP concentrations correspond to the Km of the kinases. The control substance was RXDX-106. The concentration of test compound was 3-fold diluted from an initial concentration of 10 μM, and two duplicate wells were set.
Kinase Mer (Carna, Cat. No. 08-108, Lot. No. 14CBS-0421H); Tyro3 (Carna, Cat. No. 08-109, Lot. No. 08CBS-1186H); HTRF kinase-TK kit (Cisbio, Cat. No. 62TK0PEC), the kit comprising: biotin-TK substrate lyophilized powder (Cisbio, Cat. No. 61TK0BLC, Lot. No. 07A), streptavidin-XL665 (Cisbio, Cat. No. 610SAXLG, Lot. No. 126A), TK antibody-cryptate (Cisbio, Cat. No. 610SAXLG, Lot. No. 04A), and detection buffer (including EDTA) (Cisbio, Cat. No. 62TK0PEC, Lot. No. 12A); ATP (Sigma, Cat. No. A7699-5G, CAS No. 34369-07-8, Lot. No. SLBQ6014V); DMSO (Sigma, Cat. No. D5879-1L, Lot. No. SHBH9944); HEPES (Sigma, Cat. No. V900477-500G, CAS No. 7365-45-9, Lot. No. WXBC4716V); MgCl2 (Sigma, Cat. No. 208337-1KG, Lot. No. MKBX9508V); EGTA (Sigma, Cat. No. E3889-100g, CAS 67-42-5, […], Lot. No. SLBG8546V); NP-40 (Beijing Dingguo, Cat. No. DH218, Lot. No. 36R00160); DTT (Sigma, Cat. No. D0632-25g, CAS No. 3483-12-3, Lot. No. SLBF3964V); compound plate (Labcyte, Cat. No. LP0200, Lot. No. 0006386836); assay plate (Greiner, Cat. No. 784075, Lot. No. E16123HM); control substance RXDX-106 (prepared according to the method disclosed in patent WO2013074633).
1) Preparation of a buffer: 50 mM HEPES, 10 mM MgCl2, 1 mM EGTA, 0.01% NP-40, 2 mM DTT.
2) Preparation of control substance and test samples: RXDX-106 and the compounds disclosed herein were each dissolved in DMSO to 10 mM and then diluted to 1 mM or an appropriate concentration with DMSO, and then serial double dilution was performed using BRAVO (Agilent). 100 nL of each was transferred from a compound plate (Labcyte-LP0200) to an assay plate (Greiner-784075) using ECHO 555 (Labcyte). The final concentration of DMSO was 1%.
3) Mer and Tyro3 were each diluted to 0.5 nM and 1.2 nM with the detection buffer (Cisbio, Cat. No. 62TK0PEC, Lot. No. 12A). 5 μL of each was added to a 384-well plate and incubated with the compounds disclosed herein for 30 min at 22-25° C. Final concentrations of Mer and Tyro3 were 0.25 nM and 0.6 nM, respectively.
4) Biotin-TK substrate and ATP were each diluted to a concentration twice the final concentration with 1× kinase buffer made up of HEPES, NaN3, BSA and orthovanadate. 5 μL of the mixture of substrate and ATP was added to the 384-well plate to initiate the reaction, which lasts for 1 h at 22-25° C.
5) Streptavidin-XL665 and TK antibody-cryptate were diluted to 250 nM and 0.5 nM, respectively, with the detection buffer. […] of each of the two solutions was added to the 384-well plate to initiate the reaction, which lasts for 1 h at 22-25° C. The final concentrations of streptavidin-XL665 and TK antibody-cryptate were 125 nM and 0.25 nM, respectively.
6) The fluorescence intensities at 665 nm and 615 nm were read with an Envision Reader (PerkinElmer) .
7) IC50 values of the compounds were fitted with XL-fit software.

| Compound | IC50 [nM] |
| --- | --- |
| CC(C)n1cc(C(=O)Nc2ccc(-c3cc(-c4cnn(C)c4)cnc3N)c(F)c2)c(=O)c(-c2ccc(F)cc2)c1C#N [Example 4, N-(4-(2-amino-5-(1-methyl-1H-pyrazol-4-yl)pyridin-3-yl)-3-fluorophenyl)-6-cyano-5-(4-fluorophenyl)-1-isopropyl-4-oxo-1,4-dihydropyridine-3-carboxamide] | 2.67 |
| [2H]C([2H])([2H])n1cc(-c2cnc(N)c(-c3cc(F)c(NC(=O)c4cn(C(C)C)c(C#N)c(-c5ccc(F)cc5)c4=O)cc3F)c2)cn1 [Example 34, N-(4-(2-amino-5-(1-methyl-d3-1H-pyrazol-4-yl)pyridin-3-yl)-2,5-difluorophenyl)-6-cyano-5-(4-fluorophenyl)-1-isopropyl-4-oxo-1,4-dihydropyridine-3-carboxamide] | 1.16 |
| CCn1cc(-c2cnc(N)c(-c3ccc(NC(=O)c4cn(C(C)C)c(C#N)c(-c5ccc(F)cc5)c4=O)cc3F)c2)cn1 [Example 3, N-(4-(2-amino-5-(1-ethyl-1H-pyrazol-4-yl)pyridin-3-yl)-3-fluoro-phenyl)-6-cyano-5-(4-fluorophenyl)-1-isopropyl-4-oxo-1,4-dihydropyridine-3-carboxamide] | 2.27 |
| CC(C)n1cc(C(=O)Nc2ccc(-c3cc(-c4cnn(C5CCNCC5)c4)cnc3N)c(F)c2)c(=O)c(-c2ccc(F)cc2)c1C#N [Example 2, N-(4-(2-amino-5-(1-(piperidin-4-yl)-1H-pyrazol-4-yl)pyridin-3-yl)-3-fluorophenyl)-6-cyano-5-(4-fluorophenyl)-1-isopropyl-4-oxo-1,4-dihydropyridine-3-carboxamide] | 1.18 |
| COc1cc2nccc(Oc3ccc(NC(=O)c4cn(C(C)C)c(C#N)c(-c5ccc(F)cc5)c4=O)cc3F)c2cc1OC [Example 24, 6-cyano-N-(4-((6,7-dimethoxyquinolin-4-yl)oxy)-3-fluoro-phenyl)-5-(4-fluorophenyl)-1-isopropyl-4-oxo-1,4-dihydropyridine-3-carboxamide] | 15.5 |
| CCn1cc(-c2cnc(N)c(-c3ccc(NC(=O)c4cn(C5CC5)c(C#N)c(-c5ccc(F)cc5)c4=O)cc3F)c2)cn1 [Example 10, N-(4-(2-amino-5-(1-ethyl-1H-pyrazol-4-yl)pyridin-3-yl)-3-fluorophenyl)-6-cyano-5-(4-fluorophenyl)-1-cyclopropyl-4-oxo-1,4-dihydropyridine-3-carboxamide] | 30.2 |
| CC(C)n1cc(C(=O)Nc2ccc(-c3cc(-c4cnn(C5CCN(C)CC5)c4)cnc3N)c(F)c2)c(=O)c(-c2ccc(F)cc2)c1C#N [Example 7, N-(4-(2-amino-5-(1-(1-methylpiperidin-4-yl)-1H-pyrazol-4-yl)-pyridin-3-yl)-3-fluorophenyl)-6-cyano-5-(4-fluorophenyl)-1-isopropyl-4-oxo-1,4-dihydro-pyridine-3-carboxamide] | 1.77 |
| CCn1cc(-c2cnc(N)c(-c3cc(F)c(NC(=O)c4cn(C(C)C)c(C#N)c(-c5ccc(F)cc5)c4=O)cc3F)c2)cn1 [Example 33, N-(4-(2-amino-5-(1-ethyl-1H-pyrazol-4-yl)pyridin-3-yl)-2,5-difluorophenyl)-6-cyano-5-(4-fluorophenyl)-1-isopropyl-4-oxo-1,4-dihydropyridine-3-carboxamide] | 0.5 |
| CC(C)n1cc(C(=O)Nc2cc(F)c(-c3cc(-c4cnn(C)c4)cnc3N)cc2F)c(=O)c(-c2ccc(F)cc2)c1C#N [Example 6, N-(4-(2-amino-5-(1-methyl-1H-pyrazol-4-yl)pyridin-3-yl)-2,5-difluorophenyl)-6-cyano-5-(4-fluorophenyl)-1-isopropyl-4-oxo-1,4-dihydropyridine-3-carboxamide] | 1.8 |
